The text below walks through data of patent US20030170296A1, “Transdermal drug delivery system” (priority 2000, published 2003).

The conditions of data set [1]: single application of hydrogel disc system to skin; neonates with apnea; cited from earlier work.
The conditions of data set [2]: male, CD1 hairless, mouse, 24 h, pH 7.4.
The conditions of data set [3]: cited from earlier work.
A short description of data set [4]: Pharmacokinetic study of transdermal APAP in rats. It counts as in vivo, rats (Sprague-Dawley). The note with it: 100 mg APAP enhancer-containing transdermal system vs regular 100 mg patch, n=6 per group (FIG. 3). Here is the method: Methodology: Anesthetized (15 mg/kg pentobarbital sodium i.p.) rats (Sprague-Dawley, 500-600 g), were placed on their back, the abdominal hair was trimmed off, and the skin was washed gently with distilled water. Anesthesia was maintained with 0.1 ml pentobarbital (15 mg/ml) along the experiment. […] Blood samples were taken from the tail vein into heparanized tubes at t=0, 1, 2, 3, 4, 5, 7 and 9 hours from the time of application.
After centrifugation, plasma were analyzed for APAP by EMIT kit (Serum Tox EIA Assay, Diagnostic Reagents, Inc.).

Regarding `Cn1c(=O)c2[nH]cnc2n(C)c1=O` [theophylline], the “duration of therapeutic concentrations” value in data set [1] is “up to 3 days”.

As to `O=C(O)Cc1ccccc1Nc1c(Cl)cccc1Cl` [diclofenac], in data set [2], the “higher dose of diclofenac delivered vs regular application of Voltaren Emulgel” value stood at 12 fold.

On to `CC(=O)Nc1ccc(O)cc1` [APAP, Acetaminophen], for which, in data set [3] (in vivo), the Volume of distribution is reported as 0.95 L/kg, the “binding to plasma proteins” value is 20% and the effective plasma concentrations was 10 to 20 µg/mL. In addition, the “plasma elimination half life” value in data set [3] (similar in children and adults) is reported as “about 2 hours”. Besides, in data set [3] (therapeutic doses), the “drug recovered in the urine” value is listed as 90-100%, the “recovered in urine conjugated with cysteine” value was “about 2%”, the “recovered in urine conjugated with glucuronic acid” value is reported as “about 60%” and the “recovered in urine conjugated with sulfuric acid” value was “about 35%”. Also, in data set [3] (therapeutic doses), the “unchanged APAP in urine” value was “about 2%”. Further, in data set [4], the “systemic penetration (plasma APAP)” value was “significant increase in penetration”.
